Test results: article PMC12400753 (Respiratory Research, 2025)
pIC50: −log10 of the molar value.

Columns and labels:
Test in all cases: LPA-induced calcium mobilization in transiently transfected HEK293T cells
Type in all cases: cell-based
human LPAR2 = target: T1, human LPAR2 (Homo sapiens, UniProt Q9HBW0); settings: 3 h preincubation; LPA at EC80 5 µM
T1 construct: host or cells: HEK293T
Description: (§1) We had previously assessed selectivity against LPAR2 and 3 [11]. […] Human LPAR1-6 plasmids were each transiently transfected into HEK293T cells and the EC80 (effective concentration producing 80% maximal effect) for LPA activation empirically determined. Selectivity was then tested in a concentration response paradigm using a 3 h preincubation followed by LPA-induced calcium mobilization.
(§2) Plasmids containing human LPAR1-6 were obtained from Origene (Rockville, MD) and maxiprepped at Eton Biosciences (San Diego, CA). Transfection mix was prepared by adding Fugene 6 transfection mix to serum free media and 0.1 µg plasmid. After a 20 m incubation, HEK293T cells (ATCC, Manassas VA) were lifted with Accutase and added to the Fugene mix at a final concentration of 0.5 × 10^4 cells/well. Cells were then plated on black clear bottom 96-well plates and incubated overnight in a 37 °C, 5% CO2 incubator. […] During the last hour of incubation, media was removed and replaced with Fluo-4 NW calcium assay dye prepared as per manufacturer’s recommendations in assay buffer. Agonist plates containing LPA were prepared for individual receptor subytpes using their respective EC80. Calcium mobilization was measured as per manufacturer’s directions on a Flexstation 3 (Molecular Devices, San Jose, CA).

human LPAR4 = target: T2, human LPAR4 (Homo sapiens, UniProt Q99677); settings: 3 h preincubation; LPA at EC80 10 µM
T2 construct: host or cells: HEK293T
T2 sequence (Q99677 whole entry): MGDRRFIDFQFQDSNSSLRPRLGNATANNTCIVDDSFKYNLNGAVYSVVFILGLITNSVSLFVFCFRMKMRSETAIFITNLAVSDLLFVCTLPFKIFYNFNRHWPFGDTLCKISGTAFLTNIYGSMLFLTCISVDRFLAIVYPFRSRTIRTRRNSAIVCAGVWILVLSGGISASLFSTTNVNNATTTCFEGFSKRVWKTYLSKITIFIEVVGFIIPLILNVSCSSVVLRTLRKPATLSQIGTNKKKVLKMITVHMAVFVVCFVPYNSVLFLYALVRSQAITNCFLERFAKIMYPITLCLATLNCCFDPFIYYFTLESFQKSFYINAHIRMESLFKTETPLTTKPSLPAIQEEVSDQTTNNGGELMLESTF
Description: as §1, §2

human LPAR5 = target: T3, human LPAR5 (Homo sapiens, UniProt Q9H1C0); settings: 3 h preincubation; LPA at EC80 1 µM
T3 construct: host or cells: HEK293T
T3 sequence (Q9H1C0 whole entry): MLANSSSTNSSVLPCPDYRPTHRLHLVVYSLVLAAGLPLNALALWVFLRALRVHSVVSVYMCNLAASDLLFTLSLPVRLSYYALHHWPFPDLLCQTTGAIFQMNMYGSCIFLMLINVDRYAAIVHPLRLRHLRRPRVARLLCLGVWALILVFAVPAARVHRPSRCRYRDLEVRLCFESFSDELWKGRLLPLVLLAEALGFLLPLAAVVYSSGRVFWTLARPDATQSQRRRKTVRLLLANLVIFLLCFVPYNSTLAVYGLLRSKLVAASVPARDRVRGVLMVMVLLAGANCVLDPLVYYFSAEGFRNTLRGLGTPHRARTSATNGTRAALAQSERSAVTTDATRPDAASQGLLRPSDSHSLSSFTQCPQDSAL
Description: as §1, §2

T1 sequence (Q9HBW0 whole entry): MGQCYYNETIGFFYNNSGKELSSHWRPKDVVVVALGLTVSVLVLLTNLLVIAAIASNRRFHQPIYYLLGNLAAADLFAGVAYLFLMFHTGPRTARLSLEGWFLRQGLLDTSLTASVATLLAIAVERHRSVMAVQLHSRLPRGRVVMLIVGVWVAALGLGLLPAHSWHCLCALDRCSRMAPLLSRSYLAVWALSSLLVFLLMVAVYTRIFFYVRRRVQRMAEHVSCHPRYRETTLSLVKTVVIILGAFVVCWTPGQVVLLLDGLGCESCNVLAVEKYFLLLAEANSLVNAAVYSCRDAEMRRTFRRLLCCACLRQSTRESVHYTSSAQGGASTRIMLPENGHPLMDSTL

Q: `COc1ccc(NC(=O)N(c2ccccc2C(C)C)C2CCC(C(=O)O)CC2)c(OC(F)F)n1` (stereo not drawn) [PIPE-791] was tested. Which pIC50 (human LPAR2) did it give?
A: 6.33

Q: And the pIC50 (human LPAR4)?
A: 6.22

Q: What about the pIC50 (human LPAR5) of the same compound?
A: 6.94
